Assay results as given in ChEMBL document CHEMBL1201862, “PubChem BioAssay data set” (2004).
Calls of active or inactive are those of the source.

Experiments:
[1] = molecular target: T1, Short transient receptor potential channel 4 (Mus musculus, UniProt Q9QUQ5); assay: block of DAMGO-driven TRPC4 calcium entry – cell-based, HEK293 TRPC4/mu-opioid, Fluo-4 calcium, dose response (AID 434942); assay type: functional;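 note: potency of inhibitors blocking the TRPC4 calcium response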
T1 sequence (Q9QUQ5 whole entry): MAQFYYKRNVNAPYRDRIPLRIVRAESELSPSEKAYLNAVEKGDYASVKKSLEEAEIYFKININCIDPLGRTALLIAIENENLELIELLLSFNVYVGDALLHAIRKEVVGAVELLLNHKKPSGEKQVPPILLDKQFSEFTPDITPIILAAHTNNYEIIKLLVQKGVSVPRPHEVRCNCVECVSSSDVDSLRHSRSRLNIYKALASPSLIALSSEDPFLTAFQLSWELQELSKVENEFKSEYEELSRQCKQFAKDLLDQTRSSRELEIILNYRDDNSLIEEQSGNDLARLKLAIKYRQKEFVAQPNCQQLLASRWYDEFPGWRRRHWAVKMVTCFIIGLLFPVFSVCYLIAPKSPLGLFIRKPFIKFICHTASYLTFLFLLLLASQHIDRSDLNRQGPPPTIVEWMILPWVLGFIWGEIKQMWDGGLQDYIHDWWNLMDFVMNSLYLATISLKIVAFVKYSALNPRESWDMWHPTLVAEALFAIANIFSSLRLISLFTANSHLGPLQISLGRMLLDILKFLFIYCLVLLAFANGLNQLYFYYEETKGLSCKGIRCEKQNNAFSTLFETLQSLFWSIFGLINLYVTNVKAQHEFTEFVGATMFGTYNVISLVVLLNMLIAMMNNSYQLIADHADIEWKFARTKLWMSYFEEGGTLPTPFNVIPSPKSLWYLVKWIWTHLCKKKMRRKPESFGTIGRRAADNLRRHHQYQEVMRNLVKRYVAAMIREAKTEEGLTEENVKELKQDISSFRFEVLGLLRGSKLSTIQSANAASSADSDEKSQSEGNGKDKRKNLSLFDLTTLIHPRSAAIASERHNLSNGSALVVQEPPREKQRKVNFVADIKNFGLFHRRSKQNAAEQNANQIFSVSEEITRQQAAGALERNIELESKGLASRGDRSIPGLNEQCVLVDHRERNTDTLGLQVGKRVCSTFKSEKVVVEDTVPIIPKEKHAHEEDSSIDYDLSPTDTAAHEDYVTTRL

Mu-type opioid receptor = Mu-type opioid receptor (Homo sapiens, UniProt P35372); assay: (§1) Counterscreen for agonists of heterodimerization of the mu 1 (OPRM1) and delta 1 (OPRD1) opioid receptors: Luminescence-based cell-based high throughput dose response assay to identify agonists of OPRM1 homodimerization.; assay type: functional
[2] = molecular target: Delta-type opioid receptor (Homo sapiens, UniProt P41143); assay: as §1, with “of OPRD1” for “of OPRM1”, “homodimerization. [Related pubchem assays (depositor defined):AID504326, AID504355, AID504692, AID504904, AID504905]” for “homodimerization.”; assay type: functional
[3] = molecular target: 5-hydroxytryptamine receptor 5A (Homo sapiens, UniProt P47898); assay: Counterscreen for agonists of OPRM1-OPRD1 heterodimerization: luminescence-based cell-based high throughput dose response assay to identify agonists of 5-hydroxytryptamine (serotonin) 5A receptor (HTR5A). [Related pubchem assays (depositor defined):AID504326, AID504355, AID504692, AID504904, AID504905]; assay type: functional
[4] = molecular target: T2, Calpain-2 catalytic subunit (Sus scrofa, UniProt P43367); assay: m-calpain protease blockers, concentration series – biochemical, fluorogenic peptide substrate, dose response (AID 1420); assay type: functional
T2 sequence (P43367 whole entry): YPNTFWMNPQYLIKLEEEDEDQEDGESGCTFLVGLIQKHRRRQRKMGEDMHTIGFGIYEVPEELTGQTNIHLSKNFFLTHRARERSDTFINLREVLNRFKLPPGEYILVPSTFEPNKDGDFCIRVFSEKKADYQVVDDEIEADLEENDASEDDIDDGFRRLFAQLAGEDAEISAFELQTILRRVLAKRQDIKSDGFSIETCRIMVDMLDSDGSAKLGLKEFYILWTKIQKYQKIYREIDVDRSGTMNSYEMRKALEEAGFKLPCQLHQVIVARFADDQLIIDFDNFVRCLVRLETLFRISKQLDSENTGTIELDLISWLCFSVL

[5] = molecular target: Heat shock protein HSP 90-alpha (Homo sapiens, UniProt P07900); assay type: functional, organism-based
Vero = assay: cells; assay type: functional; details: Chlorocebus sabaeus
Streptokinase A = molecular target: T3, Streptokinase A (Streptococcus pyogenes serotype M1, UniProt P10520); assay: viability-normalized secreted streptokinase activity reduction – plasminogen activation absorbance, OD405, dose response (AID 1914); assay type: functional, Streptococcus pyogenes M1 GAS;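 note: secreted streptokinase activity via plasminogen activation per viability signal from cell pellet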
T3 sequence (P10520 whole entry): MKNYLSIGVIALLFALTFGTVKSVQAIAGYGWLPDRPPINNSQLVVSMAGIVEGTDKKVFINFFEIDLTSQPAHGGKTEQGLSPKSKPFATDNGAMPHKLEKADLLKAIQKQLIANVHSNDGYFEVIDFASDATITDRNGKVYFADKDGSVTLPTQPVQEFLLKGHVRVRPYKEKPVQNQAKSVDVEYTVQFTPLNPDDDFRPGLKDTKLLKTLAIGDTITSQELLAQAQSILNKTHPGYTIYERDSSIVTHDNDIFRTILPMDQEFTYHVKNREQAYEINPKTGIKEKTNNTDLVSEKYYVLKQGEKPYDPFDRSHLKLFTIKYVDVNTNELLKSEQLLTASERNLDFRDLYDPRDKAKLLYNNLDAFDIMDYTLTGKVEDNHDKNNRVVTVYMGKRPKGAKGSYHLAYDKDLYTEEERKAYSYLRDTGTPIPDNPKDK

Streptococcus = assay: GAS UMAA2166 growth inhibition – luminescence, BacTiterGlo, counter-screen for streptokinase expression inhibitor project, dose response (AID 1915); assay type: functional, organism-based;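 note: potency for reduction of bacterial viability or growth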
[6] = decrease of insulin promoter-GFP reporter – imaging, high-content screening, mouse beta cells (AID 1628); assay type: functional; details: MIN6
[7] = MIN6 cell viability loss – mouse insulinoma, cytotoxicity control, dose response (AID 2122); assay type: functional;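 note: confirmatory high-throughput counterscreen run to flag cytotoxic compounds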
Large T antigen = Large T antigen (Simian virus 40, UniProt P03070); assay type: functional, Betapolyomavirus macacae;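 note: Confirmatory-stage PubChem screen for compounds that inhibit SV40 T antigen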
[8] = molecular target: T4, Long-chain-fatty-acid--AMP ligase FadD28 (Mycobacterium tuberculosis, UniProt P9WQ59); assay: Fluorescence polarization aasay to screen for inhibitors that compete for the binding of FadD28 to a bisubstrate Measured in Biochemical System Using Plate Reader - 2147-01_Inhibitor_Dose_CherryPick_Activity.; assay type: functional, Mycobacterium tuberculosis H37Rv
T4 sequence (P9WQ59 whole entry): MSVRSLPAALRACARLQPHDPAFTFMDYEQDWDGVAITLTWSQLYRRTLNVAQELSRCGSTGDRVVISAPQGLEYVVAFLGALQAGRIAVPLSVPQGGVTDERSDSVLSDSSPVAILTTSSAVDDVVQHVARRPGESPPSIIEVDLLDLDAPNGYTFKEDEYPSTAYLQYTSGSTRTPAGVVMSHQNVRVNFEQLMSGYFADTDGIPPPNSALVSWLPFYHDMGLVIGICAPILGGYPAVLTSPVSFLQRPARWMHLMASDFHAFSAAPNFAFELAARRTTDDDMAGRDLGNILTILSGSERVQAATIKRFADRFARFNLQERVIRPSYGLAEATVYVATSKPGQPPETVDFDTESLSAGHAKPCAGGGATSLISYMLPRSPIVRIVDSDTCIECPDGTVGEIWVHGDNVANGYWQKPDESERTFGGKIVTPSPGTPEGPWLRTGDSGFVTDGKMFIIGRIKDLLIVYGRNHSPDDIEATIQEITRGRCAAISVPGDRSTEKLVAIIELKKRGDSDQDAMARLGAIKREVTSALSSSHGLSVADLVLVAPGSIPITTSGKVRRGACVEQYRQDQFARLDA

[9] = molecular target: E3 ubiquitin-protein ligase Mdm2 (Homo sapiens, UniProt Q00987); assay: MDM2-luc reporter signal enhancers, multi-concentration potency testing, MDM2 ubiquitin-protein ligase inhibitor program, whole-cell format, luminescence detection, 384-well microplate (AID 1394); assay type: functional;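 note: MDM2 E3 inhibitors raise luminescence so EC50 is for signal enhancement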
[10] = molecular target: T5, Lysine-specific demethylase 4C (Homo sapiens, UniProt Q9H3R0); assay: inhibition of JMJD2C H3K9me3 demethylation – biochemical, DELFIA europium, cherry-picked samples, dose response (AID 488835); assay type: functional
T5 sequence (Q9H3R0 whole entry): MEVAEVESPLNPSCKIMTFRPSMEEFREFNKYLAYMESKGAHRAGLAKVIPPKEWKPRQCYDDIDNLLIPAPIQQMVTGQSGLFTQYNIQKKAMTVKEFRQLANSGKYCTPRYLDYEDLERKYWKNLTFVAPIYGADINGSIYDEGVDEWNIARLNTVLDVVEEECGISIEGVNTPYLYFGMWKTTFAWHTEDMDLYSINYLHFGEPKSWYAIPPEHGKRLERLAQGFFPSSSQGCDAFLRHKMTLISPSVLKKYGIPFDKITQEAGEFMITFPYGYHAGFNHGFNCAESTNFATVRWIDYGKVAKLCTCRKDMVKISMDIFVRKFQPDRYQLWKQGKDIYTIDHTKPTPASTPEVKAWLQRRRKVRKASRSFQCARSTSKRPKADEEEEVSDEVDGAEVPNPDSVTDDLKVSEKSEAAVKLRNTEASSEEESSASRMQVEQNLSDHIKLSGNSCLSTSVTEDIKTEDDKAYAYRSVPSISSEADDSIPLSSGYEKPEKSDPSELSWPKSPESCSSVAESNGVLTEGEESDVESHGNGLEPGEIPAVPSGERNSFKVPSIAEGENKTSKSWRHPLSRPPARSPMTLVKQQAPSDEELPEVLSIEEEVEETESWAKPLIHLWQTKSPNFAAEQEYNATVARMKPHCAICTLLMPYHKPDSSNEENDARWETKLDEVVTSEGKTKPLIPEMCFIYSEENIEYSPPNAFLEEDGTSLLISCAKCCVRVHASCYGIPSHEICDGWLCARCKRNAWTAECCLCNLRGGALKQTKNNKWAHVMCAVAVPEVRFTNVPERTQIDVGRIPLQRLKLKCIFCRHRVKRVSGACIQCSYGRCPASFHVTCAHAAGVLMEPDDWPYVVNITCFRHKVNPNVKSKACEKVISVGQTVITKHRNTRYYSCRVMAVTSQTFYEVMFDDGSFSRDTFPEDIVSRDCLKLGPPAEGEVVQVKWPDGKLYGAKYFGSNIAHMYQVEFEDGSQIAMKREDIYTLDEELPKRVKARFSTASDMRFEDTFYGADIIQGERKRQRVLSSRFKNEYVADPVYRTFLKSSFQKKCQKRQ

Escherichia coli = assay: microbe, parasite or virus in culture

E3 ubiquitin-protein ligase Mdm2, sequence (Q00987 whole entry): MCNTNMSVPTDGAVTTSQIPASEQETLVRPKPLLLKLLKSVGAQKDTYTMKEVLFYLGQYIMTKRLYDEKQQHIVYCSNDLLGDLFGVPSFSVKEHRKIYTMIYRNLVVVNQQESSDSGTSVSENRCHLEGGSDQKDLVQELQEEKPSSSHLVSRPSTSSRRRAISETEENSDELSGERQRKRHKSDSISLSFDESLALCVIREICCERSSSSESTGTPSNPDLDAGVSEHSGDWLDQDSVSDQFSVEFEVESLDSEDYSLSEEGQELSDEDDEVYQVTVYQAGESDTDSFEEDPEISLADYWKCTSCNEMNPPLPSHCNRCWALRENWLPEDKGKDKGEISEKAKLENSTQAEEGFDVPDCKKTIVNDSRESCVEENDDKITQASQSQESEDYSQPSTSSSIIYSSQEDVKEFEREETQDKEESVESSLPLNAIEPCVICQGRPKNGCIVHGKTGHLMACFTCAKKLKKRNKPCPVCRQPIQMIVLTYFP
Delta-type opioid receptor, sequence (P41143 whole entry): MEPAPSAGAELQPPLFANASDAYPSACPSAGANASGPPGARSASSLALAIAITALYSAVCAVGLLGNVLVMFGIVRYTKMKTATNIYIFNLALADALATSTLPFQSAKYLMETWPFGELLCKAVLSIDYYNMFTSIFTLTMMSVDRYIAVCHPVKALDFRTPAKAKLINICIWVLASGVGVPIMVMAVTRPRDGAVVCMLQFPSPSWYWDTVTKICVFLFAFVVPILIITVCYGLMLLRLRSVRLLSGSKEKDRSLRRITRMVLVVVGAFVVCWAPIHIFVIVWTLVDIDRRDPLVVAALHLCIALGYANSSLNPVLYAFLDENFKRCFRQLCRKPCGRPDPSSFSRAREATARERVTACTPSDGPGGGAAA
Large T antigen, sequence (P03070 whole entry): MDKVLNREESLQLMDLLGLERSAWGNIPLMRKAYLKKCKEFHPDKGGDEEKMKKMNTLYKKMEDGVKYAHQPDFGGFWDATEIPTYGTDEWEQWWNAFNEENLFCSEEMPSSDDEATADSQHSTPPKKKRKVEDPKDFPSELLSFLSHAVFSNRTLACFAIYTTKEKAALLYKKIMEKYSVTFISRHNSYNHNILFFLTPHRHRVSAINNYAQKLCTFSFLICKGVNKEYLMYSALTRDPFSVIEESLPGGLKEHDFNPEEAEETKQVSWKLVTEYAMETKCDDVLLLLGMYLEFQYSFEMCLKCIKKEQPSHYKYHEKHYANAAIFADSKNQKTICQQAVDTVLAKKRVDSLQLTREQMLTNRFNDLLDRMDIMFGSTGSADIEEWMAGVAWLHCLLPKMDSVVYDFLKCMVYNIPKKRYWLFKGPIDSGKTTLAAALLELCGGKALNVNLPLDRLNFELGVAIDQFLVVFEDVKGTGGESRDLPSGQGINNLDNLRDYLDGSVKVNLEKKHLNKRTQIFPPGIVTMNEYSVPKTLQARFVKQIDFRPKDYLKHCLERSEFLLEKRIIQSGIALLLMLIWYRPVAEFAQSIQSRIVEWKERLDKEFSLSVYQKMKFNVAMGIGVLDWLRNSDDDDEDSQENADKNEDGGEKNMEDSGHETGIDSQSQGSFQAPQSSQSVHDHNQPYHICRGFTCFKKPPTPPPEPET
Mu-type opioid receptor, sequence (P35372 whole entry): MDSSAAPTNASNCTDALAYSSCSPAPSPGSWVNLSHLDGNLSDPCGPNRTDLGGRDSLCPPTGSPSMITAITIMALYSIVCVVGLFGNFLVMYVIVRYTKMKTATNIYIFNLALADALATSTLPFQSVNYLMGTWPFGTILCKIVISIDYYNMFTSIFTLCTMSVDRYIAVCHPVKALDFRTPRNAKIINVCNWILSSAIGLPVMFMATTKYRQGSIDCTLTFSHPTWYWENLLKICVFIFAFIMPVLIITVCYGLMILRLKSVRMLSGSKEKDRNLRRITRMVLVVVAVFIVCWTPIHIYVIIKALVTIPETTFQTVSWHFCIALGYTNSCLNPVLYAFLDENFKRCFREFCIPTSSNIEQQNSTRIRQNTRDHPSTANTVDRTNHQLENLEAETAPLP
5-hydroxytryptamine receptor 5A, sequence (P47898 whole entry): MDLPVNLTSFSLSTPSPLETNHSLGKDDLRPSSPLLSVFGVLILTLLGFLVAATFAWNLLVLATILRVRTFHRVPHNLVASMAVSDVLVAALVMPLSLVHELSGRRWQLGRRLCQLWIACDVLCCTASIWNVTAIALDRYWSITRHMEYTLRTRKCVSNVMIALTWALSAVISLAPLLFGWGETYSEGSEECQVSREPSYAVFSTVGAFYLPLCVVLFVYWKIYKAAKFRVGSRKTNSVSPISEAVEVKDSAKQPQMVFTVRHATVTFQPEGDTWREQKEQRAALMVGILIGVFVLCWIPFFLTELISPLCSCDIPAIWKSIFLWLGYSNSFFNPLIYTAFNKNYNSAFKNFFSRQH

## CN(C)C(CNC(=O)c1cccc(C(F)(F)F)c1)c1ccco1 (stereo unspecified)
[1]
  EC50: 376 nM (active)
Mu-type opioid receptor
  EC50: > 92.4 µM (inactive)
[2]
  EC50: > 92.4 µM (inactive)
[3]
  EC50: > 92.4 µM (inactive)

## CCCc1ccc(Oc2c[nH]nc2-c2ccc(O)c(C)c2O)cc1
[4]
  IC50: 38.2 µM (not active)
[5]
  AC50: 3.08 µM (active)
Vero
  CC50: > 25 µM (active)
Streptokinase A
  EC50: > 150 µM (not active)
Streptococcus
  EC50: 8.83 µM (active)

## Cn1c(=O)c2c(nc(NCc3ccc4c(c3)OCO4)n2Cc2ccccc2)n(C)c1=O
[6]
  IC50: 696 nM (active)
[7]
  IC50: 541 nM (active)

## CCN1C(=O)C(=C/C=C/c2ccco2)C(=O)N(CC)C1=S
Large T antigen
  IC50: 45.3 µM (active)
[8]
  AC50: > 100 µM (inactive)
[9]
  EC50: 25 µM (not active)
[10]
  AC50: 1.18 µM (active)

## Cc1nc(SCc2ccc(C(=O)O)cc2)c2c(C)c(C)sc2n1
Escherichia coli
  AC50: 28.5 µM (active)
